Where two headings read alike, the source gives them in different places.
How the values were obtained:
Type in all cases: cell-based
[1] = target: IKZF1 (Homo sapiens, UniProt Q13422+Q96SW2); experiment: Prolabel quantification of IKZF1 protein levels in 293GT cells; details: Prolabel assay, read-out: IKZF1 EC50
[2] = target: IKZF2 (Homo sapiens, UniProt Q96SW2+Q9UKS7); experiment: Prolabel quantification of IKZF2 protein levels in 293GT cells
[3] = target: GSPT1 (Homo sapiens, UniProt P15170+Q96SW2); experiment: Prolabel quantification of GSPT1 protein levels in 293GT cells; details: Prolabel assay, read-out: GSPT1 EC50
Protocol: The Prolabel system from DiscoverX was used to develop high-throughput and quantitative assays to measure changes in IKZF1, IKZF2 and GSPT1 protein levels in response to compounds. The prolabel tag was derived from the alpha fragment of beta galactosidase and has the following protein sequence: mssnslavvlqrrdwenpgvtqlnrlaahppfaswrnseeartdrpsqqlrslnge. The complementary fragment of beta-galactosidase (from DiscoverX), is added to the prolabel tag to form an active beta galactosidase enzyme whose activity can be precisely measured. In this way, the levels of a fusion protein with the prolabel tag can be quantified in cell lysates.
Lentiviral vectors, based on the Invitrogen pLenti6.2/V5 DEST backbone, were constructed that placed the prolabel tag upstream of IKZF1, IKZF2 or GSPT1 and expressed the fusion protein from a CMV promoter.
To ensure moderate and consistent expression of the prolabel fusion proteins across all cells in the population, stable cell lines were constructed from cells expressing a single copy of the construct. Lentivirus packaged with the constructs was made using the Virapower kit from Invitrogen.
The levels of prolabel tagged fusion proteins in compound treated cell lines were measured as follows:
Day 1, Cells were diluted to 1.0×10^6 cells/ml in normal growth medium. 17.5 μL of cells were plated in each well of a solid white 384 well plate. Plates were incubated overnight in a 37° C. tissue culture incubator.
Day 2, Serial dilutions of compounds were made in 384 well plates from 10 mM stocks. 15 μL of DMSO was added to each well of a 384 well plate. In the first column 15 μL of stock compound was added. The solution was mixed and 15 μL was transferred to the next column. This was repeated until 20 two-fold dilutions were prepared. 2.5 μL of diluted compounds were transferred into 60 μL of cell culture medium in another 384 well plate, and mixed well. 2.5 μL of this mixture was added to the plated cells. The final DMSO concentration was 0.5% and the highest concentration of compound was 50 μM. Plates were incubated overnight (e.g., about 14 h, 18 h, or 24 h) in a 37° C. tissue culture incubator.
Day 3, Plates were removed from the incubator and allowed to equilibrate at rt for 30 minutes. Prolabel substrate (DiscoverX PathHunter Prolabel Detection Kit, User manual: 93-0180) was added as described by the manufacturers protocols. Plates were incubated at rt for three hours and luminescence was read using an Envision reader (Perkin Elmer) Data was analyzed and visualized using the Spotfire software package.

[4] = 24 h, 10 μM, 24 h, 293GT cells; read-out: IKZF2 % protein reduction at 10 μM, 24 h
[5] = Prolabel assay, 293GT cells; read-out: IKZF2 EC50

IKZF2, sequence (Q9UKS7 whole entry): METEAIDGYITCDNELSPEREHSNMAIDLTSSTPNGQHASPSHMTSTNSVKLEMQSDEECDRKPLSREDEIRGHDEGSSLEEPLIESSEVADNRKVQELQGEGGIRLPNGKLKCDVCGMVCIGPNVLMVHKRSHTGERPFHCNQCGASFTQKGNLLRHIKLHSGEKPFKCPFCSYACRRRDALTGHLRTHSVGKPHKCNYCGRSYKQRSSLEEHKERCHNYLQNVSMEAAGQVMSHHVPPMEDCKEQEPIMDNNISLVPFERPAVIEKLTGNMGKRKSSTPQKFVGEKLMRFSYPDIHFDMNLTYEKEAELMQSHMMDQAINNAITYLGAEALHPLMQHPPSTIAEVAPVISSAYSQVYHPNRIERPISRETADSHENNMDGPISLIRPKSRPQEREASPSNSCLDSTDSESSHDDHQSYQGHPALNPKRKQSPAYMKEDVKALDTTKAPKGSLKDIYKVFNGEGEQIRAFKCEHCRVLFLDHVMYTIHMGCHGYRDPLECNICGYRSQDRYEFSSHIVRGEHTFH
IKZF2, sequence (Q96SW2 whole entry): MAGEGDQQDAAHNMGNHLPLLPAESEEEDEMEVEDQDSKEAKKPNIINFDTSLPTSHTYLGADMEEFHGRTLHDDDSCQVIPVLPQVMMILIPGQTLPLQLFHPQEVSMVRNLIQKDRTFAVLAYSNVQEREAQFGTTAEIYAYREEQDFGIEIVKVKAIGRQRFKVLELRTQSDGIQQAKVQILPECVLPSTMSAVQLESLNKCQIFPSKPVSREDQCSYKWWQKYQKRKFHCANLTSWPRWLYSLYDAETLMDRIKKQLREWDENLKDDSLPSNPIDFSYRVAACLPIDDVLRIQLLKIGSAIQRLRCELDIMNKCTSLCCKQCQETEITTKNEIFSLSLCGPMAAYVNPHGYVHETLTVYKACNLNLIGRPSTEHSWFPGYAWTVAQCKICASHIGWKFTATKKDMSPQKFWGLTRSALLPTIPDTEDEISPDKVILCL
IKZF2, sequence (Q16531 whole entry partner): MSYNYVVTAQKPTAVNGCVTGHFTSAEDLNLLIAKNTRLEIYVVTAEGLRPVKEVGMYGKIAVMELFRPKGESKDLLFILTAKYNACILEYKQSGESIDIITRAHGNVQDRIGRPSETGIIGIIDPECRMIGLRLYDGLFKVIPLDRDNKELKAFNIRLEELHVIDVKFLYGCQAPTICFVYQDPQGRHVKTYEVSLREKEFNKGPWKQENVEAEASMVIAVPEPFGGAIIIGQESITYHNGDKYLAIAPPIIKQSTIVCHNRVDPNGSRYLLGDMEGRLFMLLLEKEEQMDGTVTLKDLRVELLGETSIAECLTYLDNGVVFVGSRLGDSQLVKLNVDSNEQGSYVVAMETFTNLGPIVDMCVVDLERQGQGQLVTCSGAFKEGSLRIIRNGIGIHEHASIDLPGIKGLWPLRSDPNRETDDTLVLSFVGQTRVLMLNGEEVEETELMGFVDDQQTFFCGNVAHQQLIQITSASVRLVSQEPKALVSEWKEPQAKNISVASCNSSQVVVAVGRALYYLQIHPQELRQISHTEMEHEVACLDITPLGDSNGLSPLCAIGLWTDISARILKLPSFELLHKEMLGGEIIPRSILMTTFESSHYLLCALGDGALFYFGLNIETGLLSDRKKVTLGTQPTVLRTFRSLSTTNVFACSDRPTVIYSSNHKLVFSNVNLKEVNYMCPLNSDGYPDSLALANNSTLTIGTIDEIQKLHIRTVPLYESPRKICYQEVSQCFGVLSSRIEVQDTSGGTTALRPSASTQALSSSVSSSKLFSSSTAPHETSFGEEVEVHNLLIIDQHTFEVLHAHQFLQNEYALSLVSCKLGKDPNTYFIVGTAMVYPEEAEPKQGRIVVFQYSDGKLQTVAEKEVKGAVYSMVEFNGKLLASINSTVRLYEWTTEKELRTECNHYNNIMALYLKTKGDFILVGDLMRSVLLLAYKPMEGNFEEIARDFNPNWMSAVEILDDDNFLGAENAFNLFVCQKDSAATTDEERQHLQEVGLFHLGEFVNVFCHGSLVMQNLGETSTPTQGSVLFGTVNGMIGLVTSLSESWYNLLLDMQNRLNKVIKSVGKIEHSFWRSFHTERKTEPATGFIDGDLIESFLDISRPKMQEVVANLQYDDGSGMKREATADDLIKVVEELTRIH
GSPT1, sequence (P15170 whole entry, the tested form may be a part): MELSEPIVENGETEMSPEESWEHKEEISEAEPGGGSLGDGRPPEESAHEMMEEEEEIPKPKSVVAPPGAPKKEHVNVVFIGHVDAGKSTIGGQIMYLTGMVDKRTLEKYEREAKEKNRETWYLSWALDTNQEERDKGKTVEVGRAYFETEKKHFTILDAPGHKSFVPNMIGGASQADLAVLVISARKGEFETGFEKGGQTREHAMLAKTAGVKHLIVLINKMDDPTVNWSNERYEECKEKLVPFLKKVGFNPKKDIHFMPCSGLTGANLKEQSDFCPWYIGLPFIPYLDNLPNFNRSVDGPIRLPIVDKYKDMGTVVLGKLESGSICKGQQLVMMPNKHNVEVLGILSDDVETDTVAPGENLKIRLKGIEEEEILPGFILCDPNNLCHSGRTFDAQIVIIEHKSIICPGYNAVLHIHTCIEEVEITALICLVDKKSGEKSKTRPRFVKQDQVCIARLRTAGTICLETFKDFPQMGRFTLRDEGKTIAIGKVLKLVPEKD
GSPT1, sequence (Q96SW2 whole entry, the tested form may be a part): as the sequence (Q96SW2 whole entry) above
GSPT1, sequence (Q16531 whole entry partner, the tested form may be a part): as the sequence (Q16531 whole entry partner) above
IKZF1, sequence (Q13422 whole entry): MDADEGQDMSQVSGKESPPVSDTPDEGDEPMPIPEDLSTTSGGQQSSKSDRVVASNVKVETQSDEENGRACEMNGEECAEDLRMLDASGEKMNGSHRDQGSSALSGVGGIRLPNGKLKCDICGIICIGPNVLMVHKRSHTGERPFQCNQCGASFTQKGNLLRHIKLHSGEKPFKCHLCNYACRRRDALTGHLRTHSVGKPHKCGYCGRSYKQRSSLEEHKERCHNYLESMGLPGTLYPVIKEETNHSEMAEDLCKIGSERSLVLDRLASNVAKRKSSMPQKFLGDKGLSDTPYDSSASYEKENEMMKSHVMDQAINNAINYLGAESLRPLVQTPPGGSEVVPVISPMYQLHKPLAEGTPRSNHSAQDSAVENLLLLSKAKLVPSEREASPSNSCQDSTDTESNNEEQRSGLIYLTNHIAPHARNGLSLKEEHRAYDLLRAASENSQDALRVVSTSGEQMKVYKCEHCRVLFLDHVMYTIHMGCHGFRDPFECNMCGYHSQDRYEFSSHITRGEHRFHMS
IKZF1, sequence (Q96SW2 whole entry): as the sequence (Q96SW2 whole entry) above
IKZF1, sequence (Q16531 whole entry partner): as the sequence (Q16531 whole entry partner) above

Row | DC50 [1] | inhibition at 10 µM [2, 4] | DC50 [3] | DC50 [2, 5] | IKZF2 protein levels as compared to the control (DMSO) ([2]; Prolabel assay in HEK293GT cells, bar graph) | SMILES | inhibition at 10 µM ([2]; 10 μM, 24 h, 293GT cells; read-out: IKZF2 % protein reduction at 10 μM, 24 h)
1 | > 50 µM | 25% | > 50 µM | – | – | O=C1CCC(N2Cc3cc([C@@H]4CCCNCC4)ccc3C2=O)C(=O)N1 (single isomer, unassigned) [Compound I-166, 3-(5-(azepan-4-yl)-1-oxoisoindolin-2-yl)piperidine-2,6-dione] | –
2 | > 30 µM | 80% | > 30 µM | 27 nM | – | NC(=O)c1ccc(CN2CCC(c3ccc4c(c3)CN(C3CCC(=O)NC3=O)C4=O)CC2)cc1 (centres unmarked) [Compound I-71, 4-((4-(2-(2,6-dioxopiperidin-3-yl)-1-oxoisoindolin-5-yl)piperidin-1-yl)methyl)benzamide] | –
3 | > 30 µM | 70% | > 30 µM | 5 nM | – | O=C1CCC(N2Cc3cc(C4CCN(Cc5ccc6c(c5)OCCCO6)CC4)ccc3C2=O)C(=O)N1 (centres unmarked) [Compound I-88, 3-(5-(1-((3,4-dihydro-2H-benzo[b][1,4]dioxepin-7-yl)methyl)piperidin-4-yl)-1-oxoisoindolin-2-yl)piperidine-2,6-dione] | –
4 | > 30 µM | 80% | > 30 µM | 12 nM | decreased | O=C1CCC(N2Cc3cc(C4CCN(Cc5cccc6[nH]ncc56)CC4)ccc3C2=O)C(=O)N1 (centres unmarked) [Compound I-43, 3-(5-(1-((1H-indazol-4-yl)methyl)piperidin-4-yl)-1-oxoisoindolin-2-yl)piperidine-2,6-dione] | –
5 | > 30 µM | 70% | > 30 µM | 33 nM | – | CCC(C)(C)c1ccc(CN2CCC(c3ccc4c(c3)CN(C3CCC(=O)NC3=O)C4=O)CC2)cc1 (centres unmarked) [Compound I-89, 3-(1-oxo-5-(1-(4-(tert-pentyl)benzyl)piperidin-4-yl)isoindolin-2-yl)piperidine-2,6-dione] | –
6 | 0.043 µM | 85% | > 30 µM | 8 nM | – | O=C1CCC(N2Cc3cc(C4CCN(Cc5nc(-c6ccccc6)c[nH]5)CC4)ccc3C2=O)C(=O)N1 (centres unmarked) [Compound I-154, 3-(1-oxo-5-(1-((4-phenyl-1H-imidazol-2-yl)methyl)piperidin-4-yl)isoindolin-2-yl)piperidine-2,6-dione] | –
7 | > 30 µM | 60% | > 30 µM | 26 nM | – | CC(C)(C)c1nc(CN2CCC(c3ccc4c(c3)CN(C3CCC(=O)NC3=O)C4=O)CC2)cs1 (centres unmarked) [Compound I-143, 3-(5-(1-((2-(tert-butyl)thiazol-4-yl)methyl)piperidin-4-yl)-1-oxoisoindolin-2-yl)piperidine-2,6-dione] | –
8 | > 30 µM | 80% | > 30 µM | 34 nM | – | O=C1CCC(N2Cc3cc(C4CCN(Cc5cn(C6CCC6)nn5)CC4)ccc3C2=O)C(=O)N1 (centres unmarked) [Compound I-134, 3-(5-(1-((1-cyclobutyl-1H-1,2,3-triazol-4-yl)methyl)piperidin-4-yl)-1-oxoisoindolin-2-yl)piperidine-2,6-dione] | –
9 | 0.14 µM | 80% | > 30 µM | 23 nM | – | CC(C)(C)c1cccc(CN2CCC(c3ccc4c(c3)CN(C3CCC(=O)NC3=O)C4=O)CC2)c1 (centres unmarked) [Compound I-107, 3-(5-(1-(3-(tert-butyl)benzyl)piperidin-4-yl)-1-oxoisoindolin-2-yl)piperidine-2,6-dione] | –
10 | 0.22 µM | 80% | > 30 µM | 10 nM | – | CN(C)S(=O)(=O)c1cccc(CN2CCC(c3ccc4c(c3)CN(C3CCC(=O)NC3=O)C4=O)CC2)c1 (centres unmarked) [Compound I-216, 3-((4-(2-(2,6-dioxopiperidin-3-yl)-1-oxoisoindolin-5-yl)piperidin-1-yl)methyl)-N,N-dimethylbenzenesulfonamide] | –
11 | > 30 µM | 80% | > 30 µM | 8 nM | – | O=C1CCC(N2Cc3cc(C4CCN(Cc5ccc6scnc6c5)CC4)ccc3C2=O)C(=O)N1 (centres unmarked) [Compound I-130, 3-(5-(1-(benzo[d]thiazol-5-ylmethyl)piperidin-4-yl)-1-oxoisoindolin-2-yl)piperidine-2,6-dione] | –
12 | > 30 µM | 80% | > 30 µM | 9 nM | – | N#CCc1ccc(CN2CCC(c3ccc4c(c3)CN(C3CCC(=O)NC3=O)C4=O)CC2)cc1 (centres unmarked) [Compound I-206, 2-(4-((4-(2-(2,6-dioxopiperidin-3-yl)-1-oxoisoindolin-5-yl)piperidin-1-yl)methyl)phenyl)acetonitrile] | –
13 | > 30 µM | 70% | > 30 µM | 7 nM | – | O=C1CCC(N2Cc3cc(C4CCN(Cc5ccc6nccnc6c5)CC4)ccc3C2=O)C(=O)N1 (centres unmarked) [Compound I-239, 3-(1-oxo-5-(1-(quinoxalin-6-ylmethyl)piperidin-4-yl)isoindolin-2-yl)piperidine-2,6-dione] | –
14 | > 50 µM | 75% | > 30 µM | 7 nM | – | CC(c1ccccc1)N1CCC(c2ccc3c(c2)CN(C2CCC(=O)NC2=O)C3=O)CC1 (racemic) [Compound I-62, 3-(1-oxo-5-(1-(1-phenylethyl)piperidin-4-yl)isoindolin-2-yl)piperidine-2,6-dione] | –
15 | > 30 µM | 75% | > 30 µM | 74 nM | – | O=C1CCC(N2Cc3cc(C4CCN(Cc5ccc(C6CCCC6)cc5)CC4)ccc3C2=O)C(=O)N1 (centres unmarked) [Compound I-110, 3-(5-(1-(4-cyclopentylbenzyl)piperidin-4-yl)-1-oxoisoindolin-2-yl)piperidine-2,6-dione] | –
16 | > 30 µM | 70% | > 30 µM | 20 nM | – | CN(C)S(=O)(=O)c1ccc(CN2CCC(c3ccc4c(c3)CN(C3CCC(=O)NC3=O)C4=O)CC2)cc1 (centres unmarked) [Compound I-237, 4-((4-(2-(2,6-dioxopiperidin-3-yl)-1-oxoisoindolin-5-yl)piperidin-1-yl)methyl)-N,N-dimethylbenzenesulfonamide] | –
17 | > 50 µM | 40% | > 50 µM | – | – | O=C1CCC(N2Cc3cc(C4CCNCC4)ccc3C2=O)C(=O)N1 (centres unmarked) [Compound I-155, 3-(1-oxo-5-(piperidin-4-yl)isoindolin-2-yl)piperidine-2,6-dione] | –
18 | > 30 µM | 75% | > 30 µM | 17 nM | – | N#Cc1cccc(CN2CCC(c3ccc4c(c3)CN(C3CCC(=O)NC3=O)C4=O)CC2)c1 (centres unmarked) [Compound I-36, 3-((4-(2-(2,6-dioxopiperidin-3-yl)-1-oxoisoindolin-5-yl)piperidin-1-yl)methyl)benzonitrile] | –
19 | > 30 µM | 65% | > 30 µM | 23 nM | – | CC(C)Oc1cccc(CN2CCC(c3ccc4c(c3)CN(C3CCC(=O)NC3=O)C4=O)CC2)c1 (centres unmarked) [Compound I-108, 3-(5-(1-(3-isopropoxybenzyl)piperidin-4-yl)-1-oxoisoindolin-2-yl)piperidine-2,6-dione] | –
20 | > 50 µM | 55% | > 50 µM | 19 nM | – | Cc1cc(C)cc(CN2CCC(c3ccc4c(c3)CN(C3CCC(=O)NC3=O)C4=O)CC2)c1 (centres unmarked) [Compound I-159, 3-(5-(1-(3,5-dimethylbenzyl)piperidin-4-yl)-1-oxoisoindolin-2-yl)piperidine-2,6-dione] | –
21 | > 50 µM | 5% | > 50 µM | – | – | CC1(C)CC(c2ccc3c(c2)CN(C2CCC(=O)NC2=O)C3=O)CC(C)(C)N1 (centres unmarked) [Compound I-171, 3-(1-oxo-5-(2,2,6,6-tetramethylpiperidin-4-yl)isoindolin-2-yl)piperidine-2,6-dione] | –

Row | SMILES | DC50 [1] | inhibition at 10 µM [2, 4] | DC50 [3] | DC50 [2, 5] | IKZF2 protein levels as compared to the control (DMSO) ([2]; Prolabel assay in HEK293GT cells, bar graph) | inhibition at 10 µM ([2]; 10 μM, 24 h, 293GT cells; read-out: IKZF2 % protein reduction at 10 μM, 24 h)
22 | O=C1CCC(N2Cc3cc(C4CCN(Cc5ccc(-c6ccccc6)cc5)CC4)ccc3C2=O)C(=O)N1 (centres unmarked) [Compound I-90, 3-(5-(1-([1,1′-biphenyl]-4-ylmethyl)piperidin-4-yl)-1-oxoisoindolin-2-yl)piperidine-2,6-dione] | > 50 µM | – | > 50 µM | 7 nM | – | 65%

Source: patent publication US11053218B2, “3-(1-oxoisoindolin-2-yl)piperidine-2,6-dione derivatives and uses thereof” (Novartis AG, priority 2017, dated 2021)
